Data taken from BigSolDB 2.1.

CC(=O)N1CCN(c2ccc(OC[C@@H]3CO[C@@](Cn4ccnc4)(c4ccc(Cl)cc4Cl)O3)cc2)CC1 (racemic)
solubility (mole fraction)
Conditions	293.2 K	298.2 K	303.2 K	308.2 K	313.2 K
in isopropanol	0.000774	0.00102	0.00136	0.00204	0.00291
in propylene glycol	0.00148	0.00195	0.00264	0.0039	0.00562
